# From patent US20220017491A1, “COMPOUND INHIBITING YAP-TEAD BINDING, AND PHARMACEUTICAL COMPOSITION FOR PREVENTING OR TREATING CANCER, COMPRISING COMPOUND AS ACTIVE INGREDIENT” (KOREA RESEARCH INSTITUTE OF CHEMICAL TECHNOLOGY, priority 2018, published 2022)
# Tests used:
# HT29 cells = assay: Proliferation assay for HT29 colorectal cancer cells (CellTiter-Glo cell viability); format: cell-based; conditions: Homo sapiens, HT-29; HT29 colorectal cancer cell line, 72 hours, ATP detection
# Protocol: HT-29 which is a commercially available colorectal cancer cell line was treated with trypsin-EDTA, incubated, and seeded in a 96 well plate. […] The treated cells were incubated for further 72 hours and cell viability was measured by an ATP detection method (CellTiter-Glo LuminescentCell Viability Assay, Promega).
# In order to confirm the anticancer effect of the compounds according to the present invention, a proliferation assay for HT29 cells which are a colorectal cancer cell line was performed by the above method, and IC50 values as a result are listed in the following Table 4: […]
# YAP-TEAD = assay: Luciferase assay of YAP-TEAD binding inhibition (TEAD luciferase reporter 8XGTIIC in HEK293T cells); format: cell-based; conditions: 10 μM, 24 hours, luciferase normalized with β-galactosidase
# Protocol: A Luciferase assay which allows an inhibition degree of YAP-TEAD, previously reported in Cancers 2018, 10(5), 140, was used to measure an in vitro binding inhibition rate of YAP-TEAD.
# HEK293T cells were purchased from American Type Culture Collection and incubated in DMEM media containing 10% FBS, L-glutamine, and penicillin/streptomycin. The HEK293T cells were seeded in a 24 well plate at a density of 1×10^5, and coated with polyethyleneamine (10 μg/mL). These cells were transfected with 8XGTIIC-luciferase (Addgene reference 34615) which is TEAD luciferase reporter plasmid and control β-galactosidase plasmid CMV-β-Gal using a lipofectamine 2000 reagent (Life Technologies, Inc.) according to the manufacturer's manual. Thereafter, the compound of the present invention was treated at a concentration of 10 μM for 24 hours, the cells were lysed using a Reporter lysis buffer (Promega, France), luciferase activity was read with a Mithras LB940 plate reader, and then normalization was performed with β-galactosidase.
# [1] = tested on: AOM/DSS-induced colorectal cancer; assay: Anticancer activity in AOM/DSS orthotopic syngeneic mouse model; format: in vivo, B6 mouse; conditions: intraperitoneally for three weeks; intestinal tissue FACS; FIG. 3
# Protocol: In order to measure an anticancer effect in the state of immunity existing in a large intestine, a conventionally known AOM/DSS model was used to measure anticancer activity (J. Vis. Exp. (67), e4100 10.3791/4100, Cell Death & Dis. 2018, 9, 153).
# A B6 mouse was adapted to an animal room for one week and then azoxymethane (AOM) was injected intraperitoneally at 10 mg/kg. After one week, the B6 mouse was supplied with a 2.5% dextran sulfate sodium (DSS) solution for one week and alternatively supplied with fresh water for two weeks, which was repeated three time, thereby causing colorectal cancer. After colorectal cancer was caused, the YAP-TEAD inhibition compound 17 of the present invention was injected intraperitoneally at 50 mg/kg, five times a week, for three weeks. After the dosing period was over, an intestine tissue was surgically isolated and the number and size of cancer tissue in the intestine tissue were measured and quantitatively analyzed, and the results are illustrated in FIGS. 1 to 3.
# In addition, in order to confirm a ratio of Treg cells which play an important role in immunosuppression in cancer tissues, FACS analysis was performed. […]
Compound,IC50 (HT29 cells),Inhibition(%) (YAP-TEAD),"Treg cells in cancer tissue (FACS, CD4 and Fop3) [1]"
N#CCCCN1C(=O)c2cccc3c(NC(=O)C4CCCCN4S(=O)(=O)c4cccs4)ccc1c23 (centres unmarked) [Compound 20],32.3 µM,65%,–
COCCCN1C(=O)c2cccc3c(NC(=O)C4CCCN(S(=O)(=O)c5scnc5C)C4)ccc1c23 (centres unmarked) [Compound 64],24.7 µM,76%,–
COCCCN1C(=O)c2cccc3c(NC(=O)C4CCCCN4S(=O)(=O)c4ccc(OC)c(OC)c4)ccc1c23 (centres unmarked) [Compound 42],44.5 µM,68%,–
COCCCN1C(=O)c2cccc3c(NC(=O)C4CCCN(S(=O)(=O)c5ccc6c(c5)CCO6)C4)ccc1c23 (centres unmarked) [Compound 34],13.3 µM,87%,–
COCCCN1C(=O)c2cccc3c(NC(=O)C4CCCN(S(=O)(=O)c5cccc6cccnc56)C4)ccc1c23 (centres unmarked) [Compound 75],16.8 µM,93%,–
COCCCN1C(=O)c2cccc3c(NC(=O)C4CCCCN4S(=O)(=O)c4sc(NC(C)=O)nc4C)ccc1c23 (centres unmarked) [Compound 43],35 µM,50%,–
COCCCN1C(=O)c2cccc3c(NC(=O)C4CCCN(S(=O)(=O)c5cccc6nsnc56)C4)ccc1c23 (centres unmarked) [Compound 69],16.8 µM,94%,–
COCCCN1C(=O)c2cccc3c(NC(=O)C4CCCCN4S(=O)(=O)c4c(Cl)nc5sccn45)ccc1c23 (centres unmarked) [Compound 78],30.1 µM,53%,–

# Now those with a lower IC50 (HT29 cells), led by results:
IC50 (HT29 cells),Compound,Inhibition(%) (YAP-TEAD),"Treg cells in cancer tissue (FACS, CD4 and Fop3) [1]"
12.2 µM,COCCCN1C(=O)c2cccc3c(NC(=O)C4CCCN(S(=O)(=O)c5ccc(Cl)s5)C4)ccc1c23 (centres unmarked) [Compound 29],87%,–
9.8 µM,COCCCN1C(=O)c2cccc3c(NC(=O)C4CCCN(S(=O)(=O)c5ccc6c(c5)OCO6)C4)ccc1c23 (centres unmarked) [Compound 56],63%,–
8.2 µM,COCCCN1C(=O)c2cccc3c(NC(=O)C4CCCCN4S(=O)(=O)c4cc5c(s4)CCCC5)ccc1c23 (centres unmarked) [Compound 84],83%,–
12.5 µM,COCCCN1C(=O)c2cccc3c(NC(=O)C4CCCCN4S(=O)(=O)c4ccc(Br)s4)ccc1c23 (centres unmarked) [Compound 60],67%,–
10.2 µM,COC(C)(C)CCN1C(=O)c2cccc3c(NC(=O)C4CCCCN4S(=O)(=O)c4cccs4)ccc1c23 (centres unmarked) [Compound 58],65%,–
4.24 µM,O=C(Nc1ccc2c3c(cccc13)C(=O)N2CCc1ccc([N+](=O)[O-])cc1)C1CCCCN1S(=O)(=O)c1cccs1 (centres unmarked) [Compound 16],77%,–
10.9 µM,COCCCN1C(=O)c2cccc3c(NC(=O)C4CCCN(S(=O)(=O)c5c(Cl)nc6sccn56)C4)ccc1c23 (centres unmarked) [Compound 68],81%,–
2.9 µM,COCCCN1C(=O)c2cccc3c(NC(=O)C4CCCCN4S(=O)(=O)c4ccc(-c5ccccn5)s4)ccc1c23 (centres unmarked) [Compound 118],84%,–
2.99 µM,COc1ccc(CCN2C(=O)c3cccc4c(NC(=O)C5CCCCN5S(=O)(=O)c5cccs5)ccc2c34)cc1 (centres unmarked) [Compound 15],81%,–
6.91 µM,COCCCN1C(=O)c2cccc3c(NC(=O)C4CCCCN4S(=O)(=O)c4cccs4)ccc1c23 (centres unmarked) [Compound 17],78%,Treg cell decrease was confirmed
8.7 µM,COCCCN1C(=O)c2cccc3c(NC(=O)C4CCCCN4S(=O)(=O)c4c(Cl)sc(Cl)c4Br)ccc1c23 (centres unmarked) [Compound 66],59%,–
6.5 µM,COCCCN1C(=O)c2cccc3c(NC(=O)C4CCCN(S(=O)(=O)c5ccc(OCCOC)c(C)c5)C4)ccc1c23 (centres unmarked) [Compound 122],68%,–
